Conditions: for log10 BCF / log10 biotransformation half-life (days): fish

SMILES	melting point	boiling point	other results
CCN1C[C@]2(COC)[C@H](O)C[C@H](OC)[C@]34C1[C@H]([C@H](OC)[C@H]23)[C@]1(OC(C)=O)[C@H]2[C@@H](OC(=O)c3ccccc3)[C@](O)(C[C@H]24)[C@@H](OC)[C@@H]1O	204 °C	–	–
CCCC(C)OC(C)=O (stereo not given)	-100 °C	130 °C	–
Cc1ccccc1S(N)(=O)=O	–	–	ready biodegradability: not readily biodegradable; log10 BCF: 0.41; log10 biotransformation half-life (days): -0.89
CC1(C)C2CCC1(C)C(Cl)C2 (stereo not given)	132 °C	208 °C	–
CCCCOC(C)C	–	109 °C	–
Cc1cc(O)c(C2CC3CCC2(C)C3(C)C)cc1C (stereo not given)	95 °C	–	–
O=C(/C=C/c1cccc([N+](=O)[O-])c1)c1ccccc1	146 °C	–	–
CCOP(=S)(OCC)SCSP(=S)(OCC)OCC	-13 °C	–	log10 Koc (L/kg): 4.06; log10 vapour pressure (mmHg): -5.82
Clc1ccc(-c2cccc(Cl)c2Cl)cc1Cl	–	–	log10 biotransformation half-life (days): 2.47
C[C@@H]1CCC[C@H](C)N1	–	127 °C	ready biodegradability: not readily biodegradable; log10 BCF: 0.7
CCCC(C)CCC(C)C (stereo not given)	–	158 °C	log10 biodegradation half-life (days): 0.301
CCCSc1ccccc1	-45 °C	220 °C	–
CC(C(=O)O)c1ccc2c(c1)[nH]c1ccc(Cl)cc12 (stereo not given)	198 °C	–	–
CCCCCCCCCCCCCCCCCCCCCCCCCCCCCCO	88 °C	–	–
C#CC(C)(C)Cl	-61 °C	76 °C	–
O=C(O)C(F)(F)C(F)(F)C(F)(F)C(F)(F)C(F)(F)C(F)(F)C(F)(F)F	55 °C	189 °C	log10 vapour pressure (mmHg): -0.28; ready biodegradability: not readily biodegradable
CCC(=O)N(CC)CC	–	191 °C	–
O=C1CCC(=O)N1Br	174 °C	–	–
CCOc1ccc2c(c1)C(C)=CC(C)(C)N2	–	–	ready biodegradability: not readily biodegradable
Cl.NCc1ccccc1	262 °C	–	–
CCCC(C)CC (stereo not given)	-119 °C	91 °C	log10 biodegradation half-life (days): 0.954; log10 vapour pressure (mmHg): 1.79
FC(F)(F)C(F)(F)C(F)(F)C(F)(F)C(F)(F)C(F)(F)C(F)(F)C(F)(F)Br	–	141 °C	–
COC(=O)c1c(Cl)nn(C)c1S(=O)(=O)NC(=O)Nc1nc(OC)cc(OC)n1	176 °C	–	–
CC(C)C(C)(C)C	-25 °C	80.8 °C	log10 biodegradation half-life (days): 0.778; log10 vapour pressure (mmHg): 2.01
CCN(CC)C(=O)C1CN2CCc3cc(OC)c(OC)cc3C2CC1OC(C)=O (stereo not given)	131 °C	–	–

SMILES	melting point	boiling point	other results
CCCCCCCCBr	-55 °C	200 °C	log10 vapour pressure (mmHg): -0.418
Clc1cccc(Oc2ccc(Cl)cc2Cl)c1	–	–	log10 vapour pressure (mmHg): -3.74
C[C@]12CC[C@@H](O)C[C@@H]1CC[C@@H]1[C@@H]2CC[C@]2(C)C(=O)CC[C@@H]12	182 °C	–	–
O=CC=CC=Cc1ccccc1	42.5 °C	–	–
C=C(C)[C@]1(O)C2OC(=O)C1[C@]1(O)[C@H]3O[C@H]3[C@]3(CO3)[C@]1(C)C2O (stereo not given in full)	225 °C	–	–
Cc1ccc(CN)cc1	12.5 °C	195 °C	–
CCCOC(=O)N1CCNCC1	–	–	ready biodegradability: readily biodegradable
COC(=O)c1ccccc1C(=O)c1ccccc1	52 °C	351 °C	ready biodegradability: not readily biodegradable; log10 BCF: 1.15; log10 biotransformation half-life (days): -1.3
O=S(=O)(Cl)c1cccc2ccccc12	68 °C	–	–
Nc1ccccc1-c1ccccc1	51 °C	299 °C	ready biodegradability: not readily biodegradable; log10 BCF: 1.41; log10 biotransformation half-life (days): -1.06
Nc1ccccc1C(=O)OCC=Cc1ccccc1	61 °C	–	–
Oc1ccc(Nc2ccccc2)cc1	73 °C	330 °C	–
CCO[Si](C)(OCC)OCC	–	142 °C	–
CC(C)=NOCCOC(=O)[C@@H](C)Oc1ccc(Oc2cnc3cc(Cl)ccc3n2)cc1	66.3 °C	–	log10 vapour pressure (mmHg): -11.5
COc1cc(OC)cc(OC)c1	54.5 °C	256 °C	–
c1ccc2c(c1)-c1cccc3c1c-2cc1ccccc13	168 °C	–	log10 Henry constant (atm·m³/mol): -6.18; log10 biodegradation half-life (days): 2.45; log10 vapour pressure (mmHg): -6.3
CC[SiH2]CC	-134 °C	57 °C	–
CC(C)(C)OC=O	–	82.5 °C	log10 Henry constant (atm·m³/mol): -3.16
O=Cc1ccc(Cl)cc1	47.5 °C	214 °C	log10 BCF: 0.32; log10 biotransformation half-life (days): 0.01
CCCCC(CC)CNCC(CC)CCCC (stereo not given)	-60 °C	281 °C	log10 vapour pressure (mmHg): -2
O=C(Cl)Cc1ccccc1	–	–	log10 vapour pressure (mmHg): -0.702
CC(=O)Oc1cccc2c1C(=O)c1c(OC(C)=O)cc(C(=O)O)cc1C2=O	218 °C	–	–
CC(Cl)C(=O)O (stereo not given)	–	185 °C	–
CCC(C)(C)C(=O)O	-14 °C	186 °C	log10 vapour pressure (mmHg): -0.83
Cc1ccc(Cl)c([N+](=O)[O-])c1	7 °C	261 °C	–

SMILES	melting point	boiling point	other results
O=C(Nc1ccccc1)c1ccccc1	163 °C	–	–
CC(C)(C)C1=CC(=O)C=C(C(C)(C)C)C1=O	66 °C	–	–
O=C(O)c1ccccc1I	163 °C	–	ready biodegradability: not readily biodegradable
CC(C)Cc1ccc(CC(=O)O)cc1	86 °C	–	–
CC1=CC(=O)C(C(C)C)=CC1=O	45.5 °C	232 °C	–
CCOC(=O)C=C1SC(N2CCCCC2)C(=O)N1CC (stereo not given)	86.5 °C	–	–
CCCCCCCCCCCCCCCCCC(=O)OCCCCC	30 °C	–	–
O=COCc1ccccc1	–	203 °C	–
CN(C)c1ccc(O)cc1	77 °C	–	–
ClC1=C(Cl)C2(Cl)C3C4OC4C(Cl)C3C1(Cl)C2(Cl)Cl (stereo not given)	160 °C	–	log10 Henry constant (atm·m³/mol): -4.68; log10 Koc (L/kg): 4.02; log10 vapour pressure (mmHg): -4.71; log10 biotransformation half-life (days): 2.2
O=C1c2ccccc2C(=O)N1CCBr	82.5 °C	–	–
CC(C)(C)c1ccc(O)c(O)c1	54.3 °C	285 °C	–
ICI	6.1 °C	182 °C	log10 Henry constant (atm·m³/mol): -3.49; log10 vapour pressure (mmHg): 0.0792
CC1=C(/C=C/C(C)=C/C=C/C(C)=C/C=O)C(C)(C)CCC1	63 °C	–	–
Cc1cc(C(=O)C(F)(F)F)ccc1Cl	–	–	ready biodegradability: not readily biodegradable
O=c1ccc2ccccc2[nH]1	200 °C	–	–
CCCCC(CC)COC(=O)CCC (stereo not given)	–	–	ready biodegradability: readily biodegradable
Cc1cc(C)cc(NC(=O)N(C)C)c1	–	–	log10 Koc (L/kg): 1.73
Cc1ccc(S(=O)(=O)F)cc1	41.5 °C	–	–
Cc1cnc2ccccc2n1	180 °C	244 °C	–
CCCC(=O)OC(C)C	–	130 °C	–
CC(C)(c1ccccc1)C(C)(C)c1ccccc1	–	–	log10 biotransformation half-life (days): 0.87
CCCCCCCCOC(=O)CCCCC	-28 °C	275 °C	–
COc1c2occc2cc2ccc(=O)oc12	148 °C	–	ready biodegradability: not readily biodegradable
NNC(N)=S	183 °C	–	ready biodegradability: not readily biodegradable

SMILES	melting point	boiling point	other results
CC(C)=CCCC(C)CCO (stereo not given)	–	–	log10 vapour pressure (mmHg): -1.36
CNC.O=C(O)COc1ccc(Cl)cc1Cl	86 °C	–	log10 vapour pressure (mmHg): -9
CC(C)CCNCCC(C)C	-44 °C	188 °C	–
O=C1CCC(=O)N1	126 °C	288 °C	log10 vapour pressure (mmHg): -4.12
CCCC(C)(C)c1ccccc1	–	206 °C	–
FC(F)(Cl)C(Cl)(Cl)Cl	40.6 °C	91.5 °C	log10 vapour pressure (mmHg): 1.78
N#C/C(=N\OCC1OCCO1)c1ccccc1	77.7 °C	–	log10 vapour pressure (mmHg): -5.4
CC(C)CC(C)(C)C(C)C	–	153 °C	–
CC(CN1C(=O)c2cccnc2Nc2ccccc21)N(C)C (stereo not given)	122 °C	–	–
NC(=O)c1cccc(Br)c1	155 °C	–	–
CCCC(C)(C)C(C)CC (stereo not given)	–	161 °C	–
O=C(CC(=O)C(F)(F)F)C(F)(F)F	–	70 °C	–
CC(C)(C)CC(C)(C)Nc1ncnc(N(CCCCCCNC2CC(C)(C)NC(C)(C)C2)C2CC(C)(C)NC(C)(C)C2)n1	138 °C	–	–
CC(=O)OC[C@]12C[C@H](OC(=O)CC(C)C)C(C)=C[C@H]1O[C@@H]1[C@H](O)[C@@H](OC(C)=O)[C@@]2(C)[C@]12CO2	152 °C	–	–
c1cc2c(cn1)CCCC2	146 °C	218 °C	–
O=c1[nH]cccc1O	–	–	ready biodegradability: not readily biodegradable
CCCCCCCN	-18 °C	156 °C	log10 vapour pressure (mmHg): 0.438
NC=O	2.55 °C	220 °C	log10 vapour pressure (mmHg): -1.21; ready biodegradability: readily biodegradable
c1ccc2c(c1)CCCO2	215 °C	–	–
Clc1cc(Cl)nc(Cl)n1	22.5 °C	212 °C	–
COP(=S)(OC)Oc1ccc([N+](=O)[O-])c(Cl)c1	21 °C	–	log10 vapour pressure (mmHg): -5.4; log10 BCF: 1.55; log10 biotransformation half-life (days): -0.47
C=CCNc1ccccc1	–	219 °C	–
CCCCCCCCCCCCC(C)=O	33.5 °C	–	–
O=c1nn[nH]c2ccccc12	217 °C	–	–
C#CCCCC#C	-85 °C	112 °C	–

SMILES	melting point	boiling point	other results
ClC1=C(Cl)C2(Cl)C3C(Cl)C(Cl)CC3C1(Cl)C2(Cl)Cl (stereo not given)	106 °C	–	log10 Henry constant (atm·m³/mol): -3.53; log10 Koc (L/kg): 4.78; log10 vapour pressure (mmHg): -4.69; ready biodegradability: not readily biodegradable; log10 BCF: 4.35; log10 biotransformation half-life (days): 2.26
COC(C)CCO (stereo not given)	–	157 °C	ready biodegradability: readily biodegradable
CO[C@H]1C=C[C@H](OC)O1	–	161 °C	–
C=Cc1ccc2ccccc2c1	66 °C	–	–
CN(C)C(=O)Nc1ccc(SC(F)(F)Cl)c(Cl)c1	114 °C	–	–
Brc1ccsc1	–	150 °C	log10 vapour pressure (mmHg): 1.22
O=C(/C=C/c1ccc([N+](=O)[O-])cc1)c1ccccc1	159 °C	–	–
O=c1c2ccccc2ccc2ccccc12	88.5 °C	–	–
CCN(CC)C(=O)c1cccnc1	25 °C	298 °C	–
Nc1ccc2c(c1)Cc1ccccc1-2	129 °C	–	–
O=C(O)c1cc(F)ccc1F	133 °C	–	–
CCCCN(CCCC)c1ccccc1	-32.2 °C	275 °C	–
ClCCOCCOCCCl	-31.5 °C	232 °C	log10 vapour pressure (mmHg): -1.22; ready biodegradability: not readily biodegradable
COc1cc2c(c(O)c1OC)C(C)N(C)CC2 (stereo not given)	112 °C	–	–
C[C@H]1/C(=C\C(=O)OCCN(C)C)CC[C@H]2[C@H]1C(=O)C[C@H]1C(C)(C)[C@@H](O)CC[C@]21C	142 °C	–	–
O=C(O)CCCCc1ccccc1	57.5 °C	–	–
CCc1cccc(-c2ccccc2)c1	-27.5 °C	284 °C	–
CCCCCCCC[C@H](O)[C@H](O)CCCCCCCC(=O)O	90 °C	–	–
COc1ccc(C(c2ccc(OC)cc2)C(Cl)(Cl)Cl)cc1	87 °C	346 °C	log10 Henry constant (atm·m³/mol): -6.69; log10 Koc (L/kg): 4.9; log10 BCF: 2.5
CC(C)C1=CC(=O)C(C)CC1 (stereo not given)	–	236 °C	–
CC(C)C(C)(C)C(C)C	-102 °C	142 °C	log10 vapour pressure (mmHg): 0.946

From the OPERA property sets (Mansouri et al. 2018)
